{"source": "paper PMC5447021", "about": "“TNF Lectin-Like Domain Restores Epithelial Sodium Channel Function in Frameshift Mutants Associated with Pseudohypoaldosteronism Type 1B” (Frontiers in Immunology, 2017)", "system": "βE539A,E542A γE548A,E551A-ENaC (βM2γM2)", "test": "Whole-cell patch clamp, βM2γM2-ENaC", "assay_type": "cell-based, human", "conditions": "HEK-293, 200 nM solnatide", "protocol": "Point mutations of α-, β-, γ- and δ-hENaC and PHA1B frameshift mutations of α-hENaC were prepared with the QuikChange Lightning Site-Directed Mutagenesis Kit (Agilent Technologies, CA, USA). Mutagenic primers were designed individually with the Primer Design Program provided on the producer’s website or for the frameshift mutations the same base changes as reported in patients (see Table 2) were performed. Primers were ordered from Sigma-Aldrich, Vienna, Austria.\nHEK-293 cells were transfected 1 day after cell seeding using X-tremeGENE HP DNA transfection reagent (Roche Diagnostics, Mannheim, Germany) according to the manufacturer’s protocol. A set of WT or mutant αβγ- or δβγ-hENaC, or α-, β-, γ-, or δ-hENaC alone was used, and the ratio of DNA to transfection reagent was 1:3. The expression was highest 48–72 h after transfection.\nElectrophysiological experiments were performed as described in detail by Shabbir et al. ([16]). […] Currents were recorded with the patch clamp method in the whole-cell mode. The chamber contained 1 ml of the bath solution of the following composition (in mM): 145 NaCl, 2.7 KCl, 1.8 CaCl2, 2 MgCl2, 5.5 glucose, and 10 HEPES, adjusted to pH 7.4 with 1 M NaOH solution. Micropipettes were pulled from thin-walled borosilicate glass capillaries (Harvard Apparatus, Holliston, MA, USA) with a DMZ Zeitz Puller to obtain electrode resistances ranging from 2 to 5 MΩ. […]", "note": "Entries after “also recorded” stand apart in the source; their conditions may differ."}
{"smiles": "C[C@@H]1NC(=O)CNC(=O)[C@H](CCC(=O)O)NC(=O)[C@@H]2CCCN2C(=O)[C@H]([C@@H](C)O)NC(=O)[C@H](CCC(=O)O)NC(=O)[C@H](CCCNC(=N)N)NC(=O)[C@H](CCC(N)=O)NC(=O)CNC(=O)[C@@H](N)CSSC[C@@H](C(=O)O)NC(=O)[C@H](Cc2ccc(O)cc2)NC(=O)[C@H](Cc2c[nH]c3ccccc23)NC(=O)[C@@H]2CCCN2C(=O)[C@H](CCCCN)NC(=O)[C@H](C)NC(=O)[C@H](CCC(=O)O)NC1=O", "note": "[solnatide, L-cysteine, L-cysteinylglycyl-L-glutaminyl-L-arginyl-L-α-glutamyl-L-threonyl-L-prolyl-L-α-glutamylglycyl-L-alanyl-L-α-glutamyl-L-alanyl-L-lysyl-L-prolyl-L-tryptophyl-L-tyrosyl-, cyclic (1→17)-disulfide]", "values": [{"measurement": "Effect of solnatide on current (words)", "setting": "n = 3", "value": "A small increase in the amiloride-sensitive Na^+ current was still observed; also recorded: still able to activate βM2γM2-ENaC (not significant) to an equal extent as WT βγ-ENaC"}, {"measurement": "Effect of solnatide on current (words)", "setting": "n = 3, listed as Solnatide", "value": "still increased the amiloride-sensitive sodium current in these mutants"}]}
